Molecules are shown by their SMILES.

The values that follow come from US11584727B2, “2-thioxothiazolidin-4-one derivatives active as transthyretin ligands and uses thereof” (BSIM Therapeutics, S.A., priority 2014, dated 2023).

The target of data set [1] is T1, wild type transthyretin (WT-TTR) (Homo sapiens, UniProt P02766).
T1 construct: made in house; host or cells: E. coli BL21 (DE3), pET23a plasmid
The experiment in a line: WT-TTR amyloid fibril formation assay (turbidimetry, acid-induced). It counts as biochemical. Particulars: pH 4.4, 72 hours; for Fibril Formation (%): WT-TTR 3.6 μM, 1:1 TTR-compound stoichiometry, 37° C., normalized to no-compound control (100%); for IC50: WT-TTR fixed at 3.6 μM, ten compound concentrations. The procedure: (§1) The first set of evaluations is based on a fast, stagnant fibril formation assay that is used for the early screening of compounds, be they virtual screening hits or newly synthesized analogues. In this assay, a solution of the compound under test at 1.8, 3.6 or 7.2 μM is added to a solution of TTR at 3.6 μM, so that there is enough compound to bind to either one or both of TTR's binding sites. The pH of the resulting solution is then lowered to 4.4 to promote amyloidogenesis. The process of amyloid fibril formation over time is assessed by turbidimetry measurements at three different wavelengths (405, 450 and 490 nm, or at 550, 600 and 650 nm when the compound absorbs light at the previous wavelengths), using a spectrophotometer endowed with a BioTek microplate reader. The extent of fibril formation of each mixture is determined by normalizing a sample with the protein (TTR), in absence of compounds, which, at the end of 72 hours, represents 100% of amyloid fibril formation. In each experiment, each compound concentration is tested in triplicate. For each compound concentration and incubation time, the arithmetic mean of the triplicate experiments is calculated, as well as the arithmetic mean of the three measured wavelengths. High activity can be defined as a percentage of fibril formation below 10% at compound concentration 7.2 μM (TTR:compound stoichiometry 1:2) and below 40% at 3.6 μM (TTR:compound stoichiometry 1:1).
The in vitro activity of the compounds was assessed through a biochemical assay based on turbidimetry measurements, in which fibril formation is induced by acidification of the solution to pH 4.4 after incubation with the hit compound to be tested. The amount of amyloid fibrils formed is then monitored throughout 72 hours. Further details on this assay are provided in the “Evaluation of amyloid inhibition in vitro” subsection in “Materials and Methods”.
Experimental evaluation of the in vitro activity of virtual screening hits against amyloid fibril formation by TTR was carried out using a biochemical assay based on turbidimetry measurements. In this assay, fibril formation is induced by acidification of the solution to pH 4.4 after incubation with the hit compound to be tested. The amount of amyloid fibrils formed is monitored over 72 hours. Further details on the assay are provided in the “Evaluation of amyloid inhibition in vitro” subsection below.
(§2) Purchased virtual screening hits and all synthesized (optimization) derivatives were dissolved in DMSO to a final concentration of 10.8 mM to provide a primary stock solution. Several secondary stock solutions were prepared in DMSO by dilution of the primary stock solution and the concentrations were chosen depending on the effectiveness of the compound in inhibiting the TTR amyloid fibril formation.
(§3) The fibril formation assay was adapted to run in a high-throughput screening mode. For this purpose, 96-well microplates were used with a final assay volume of 100 μL.
(§4) One microLitre (μL) of different compound secondary stock solutions was added to 50 μL of a 7.2 μM wild type TTR (WT-TTR) or Val122Ile-TTR (V122I-TTR) solutions in 10 miliMolar (mM) sodium phosphate buffer, 100 mM KCl and 1 mM EDTA, pH 7.2, previously dialyzed against the same buffer solution. After 30 minutes of incubation at room temperature, the pH of the mixture was lowered to 4.4 with 49 μL of 200 mM acetate buffer, 100 mM KCl and 1 mM EDTA, pH 4.3.
The mixtures were incubated at 37° C. during 72 hours. Turbidity at 405 nm, 450 nm and 490 nm (or at 550, 600 and 650 nm when the test compound absorbs light at the previous wavelengths) was measured over time (0, 17, 24, 41, 48, 65 and 72 hours) using a BioTek Microplate Spectrophotometer to evaluate the extent of fibril formation. Immediately before the turbidity measurements, the mixtures were gently shacked during 1 minute to homogenize well and not damage the formed amyloid aggregates and fibrils.

The target in data set [2] is Val122Ile transthyretin (V122I-TTR) (Homo sapiens, UniProt P02766, V142I). Kind of data set: V122I-TTR amyloid fibril formation assay (turbidimetry, acid-induced). It counts as biochemical. The note with it: pH 4.4, 72 hours. As to the method: as §1, §2, §3, §4
The mixtures were incubated at 37° C. during 72 hours. Turbidity at 405 nm, 450 nm and 490 nm (or at 550, 600 and 650 nm when the test compound absorbs light at the previous wavelengths) was measured over time (0, 17, 24, 41, 48, 65 and 72 hours) using a BioTek Microplate Spectrophotometer to evaluate the extent of fibril formation. Immediately before the turbidity measurements, the mixtures were gently shacked during 1 minute to homogenize well and not damage the formed amyloid aggregates and fibrils. The final turbidity was calculated as an average of the three wavelengths measured.
In addition, control samples containing TTR with no inhibitor and 1% DMSO, as well as inhibitor in absence of TTR were tested and analyzed.
The extent of amyloid fibril formation data was normalized to TTR in the absence of inhibitor, assigned to be 100% fibril formation (or 0% amyloid inhibition) at the end of the experiment.
The extent of amyloid fibril formation throughout 72 hours was determined as described in the “Evaluation of amyloid inhibition in vitro” subsection above.
IC50 values were calculated from the inhibition curves obtained by fitting the values by a nonlinear curve method using the OriginPro7 (OriginLab Corporation, USA).

The nature of data set [3]: HepG2 cell viability, resazurin reduction assay. The note with it: human, HepG2 hepatoma cells, approximately 72 hours incubation, read-out: inhibitory dose (ID50), cell viability. The data set is classed as cell-based. An excerpt: Cell viability of HepG2 hepatoma cells was quantified in order to assess the toxicity of the compounds at increasing concentrations. The used assay is described in detail in the “Experimental Evaluation of Cytotoxicity of Compounds using Cell-based Assays” section in “Materials and Methods”. This is a relevant assessment not just to discard potential concerns of liver damage (which is a problem reported for many drugs) but also because of the long-term nature of the treatments that patients suffering from TTR-mediated amyloidoses need to undertake.
Adherent human hepatoma cells HepG2 were cultured in DMEM (Dulbecco's Modified Eagle's Medium) with 10% fetal bovine serum (FBS), 100 U/mL penicillin, […] streptomycin, and 1 mM sodium pyruvate. The cells were grown in 75 cm^2 culture flasks at 37° C., in an atmosphere of 5% CO2, and subcultured twice a week using a trypsin-EDTA solution.
Upon 3 to 4 days of growth and reaching approximately 90% confluence, HepG2 cells were plated in 96-well microplates with cell density of 12×10^3 cells/well and in a volume of 100 μL per well.
The compounds are dissolved in DMSO and subsequently diluted in DMEM (in 9 intermediate […] concentrations). After adhesion of HepG2 cells to the microplates, […] 100 μL of each solution of intermediate compound concentration were added to each well (in quadruplicate). Positive controls were done with 10 wells containing only cells; solvent controls resulted from the analysis of the three highest DMSO concentrations tested and were carried out in triplicate.
After addition of the compounds to the cells, the microplates were incubated for approximately 72 hours at 37° C. in an atmosphere of 5% CO2 until the cell viability assay was performed.
The cell viability of HepG2 cells in the presence of test compounds was assessed by the resazurin reduction assay. Resazurin is a redox indicator that is converted into resorufin through reduction reactions of metabolically active cells. In the oxidized form it presents a purplish blue color, while the reduced form presents a purple-pink color.
A stock solution of 0.01% resazurin in PBS is diluted 1:10 in incomplete RPMI 1640 cell medium (without addition of antibiotics and FBS). After washing the cells with 200 μL PBS containing Ca^2+ and Mg^2+, 200 μL of resazurin 0.001% are added to the wells. Control runs with incomplete RPMI 1640 medium only and (without cells) are done in triplicate. […]
To quantify the reduction of resazurin to resorufin, microplate absorbance readings were taken at two wavelengths, 540 nm (reduced form) and 630 nm (oxidized form), in a Biotek spectrophotometer microplate reader. The percentage of viable cells at each compound concentration is determined using the formula: […]
(In general: The colour change of resazurin is a common sign of viable cells or microbes.)

A further data set relates to AD/TTR+/− mice. The note with it: cited from earlier work.
A further data set relates to FAP patients. The note with it: 18-month phase-III clinical trial; cited from earlier work.

Usually melting point stands for the temperature, or range, at which the solid turns liquid. Compound `O=C(O)CN1C(=O)/C(=C/c2cc(Cl)c(O)c(Cl)c2)SC1=S` [AT50-A03, (Z)-3-hydroxycarbonylmethyl-5-(3′,5′-dichloro-4′-hydroxyphenylmethylidene)-2-thioxothiazolidin-4-one] gave a melting point of 262 to 264 °C. For the same compound, in data set [1], the “Fibril Formation (%)” value is listed as 10% and the IC50 turned out to be 1.17 ± 0.03 µM. Moreover, in data set [2] (V122I-TTR 3.6 μM, 37° C.), the “Fibril Formation (%)” value was 19%. This compound registered an IC50 in data set [2] (V122I-TTR fixed at 3.6 μM, ten compound concentrations) of 1.61 µM. In data set [3], the IC50 at 72 h was above 400 µM.
In the case of `O=C(O)c1cc(-c2ccc(F)cc2F)cc(I)c1O` [iododiflunisal], in the data set with AD/TTR+/− mice, the “brain Abeta levels and deposition, cognitive function” value was “decreased brain Abeta levels and deposition”.
As to `CNC[C@H](O)[C@@H](O)[C@H](O)[C@H](O)CO.O=C(O)c1ccc2nc(-c3cc(Cl)cc(Cl)c3)oc2c1` [Tafamidis meglumine, N-methyl D-(2,3,4,5,6-pentahydroxy-hexyl)-ammonium; 2-(3,5-dichloro-phenyl)-benzoxazole-6-carboxylate], the “FAP patients with improvement of symptoms” value with FAP patients is recorded as “approximately 60%”.
As for `O=C(O)CN1C(=O)/C(=C/c2cc(F)c(O)c(F)c2)SC1=S` [AT50-A06, (Z)-3-hydroxycarbonylmethyl-5-(3′,5′-difluoro-4′-hydroxyphenylmethylidene)-2-thioxothiazolidin-4-one], the melting point lay within 221 to 222 °C. Besides, in data set [1], the “Fibril Formation (%)” value is 28% and the IC50 worked out at 1.81 ± 0.4 µM. Further, the IC50 at 72 h in data set [3] was above 400 µM.
